How the values were obtained:
MOR102-1 = test: High-throughput multiplexed odorant screening (Smell-seq), barcode RNA-seq readout; type: cell-based, mouse; settings: OR MOR102-1; pair called as hit, FDR=1%
Text: (§1) We subsequently screened 182 odorants at three concentrations in triplicate against the OR cell library, the equivalent of ˜85,000 individual luciferase assays including controls (FIG. 10A, Table 2). Each 96-well plate in the assay contained positive control odorants and solvent DMSO wells for normalization (FIG. 16). We used the EdgeR software package to determine differentially responsive ORs based on a negative binomial model of barcode counts. We found 114 OR-odorant interactions (out of 7,200 possible), 81 of which are novel, and 24 interactions with 15 orphan receptors (FIG. 10C, FIG. 17 and Supplementary Table 4) (FDR=1%; Benjamini-Hochberg correction). Overall 28 of 39 receptors were activated by at least one odorant, and 68 of 182 odorants activated at least one OR (Table 4). We chose 37 interactions of at least 1.2 fold induction to test individually with a previously developed transient OR assay that has several important differences (FIG. 18). Of the 28 interactions called as hits at an FDR of 1%, 21 of them replicated in this orthogonal system (FIG. 17). […] Conversely, we also detect 14 interactions that this previous study tested, but called negative.

MOR208-1 = test: as above; type: cell-based, mouse; settings: OR MOR208-1; pair called as hit, FDR=1%
Text: as §1

MOR189-1 = test: as above; type: cell-based, mouse; settings: OR MOR189-1; pair called as hit, FDR=1%
Text: as §1

MOR120-1 = test: as above; type: cell-based, mouse; settings: OR MOR120-1; pair called as hit, FDR=1%
Text: as §1

MOR30-1 = test: as above; type: cell-based, mouse; settings: OR MOR30-1; pair called as hit, FDR=1%
Text: as §1

MOR142-1 = test: as above; type: cell-based, mouse; settings: OR MOR142-1; pair called as hit, FDR=1%
Text: as §1

MOR132-1 = molecular target: T1, MOR132-1 (Mus musculus, UniProt Q8VFM9); test: as above; type: cell-based; settings: OR MOR132-1; pair called as hit, FDR=1%
T1 construct: protein trafficking tags (N); expressed in transfected cells; host or cells: HEK293T-derived cells (Mukku3a), PiggyBac transposon, Tet-On inducible
Text: as §1

MOR180-1 = molecular target: T2, MOR180-1 (Mus musculus, UniProt Q8VGS3); test: as above; type: cell-based; settings: OR MOR180-1; pair called as hit, FDR=1%
T2 construct: protein trafficking tags (N); expressed in transfected cells; host or cells: HEK293T-derived cells (Mukku3a), PiggyBac transposon, Tet-On inducible
Text: as §1

Olfr62 = test: as above; type: cell-based, mouse; settings: OR Olfr62; pair called as hit, FDR=1%
Text: as §1

MOR 199-1 = test: as above; type: cell-based, mouse; settings: OR MOR 199-1; pair called as hit, FDR=1%
Text: as §1

MOR170-1 = test: High-throughput multiplexed odorant screening (Smell-seq), 96-well, barcode RNA-seq readout; type: cell-based, mouse; settings: OR MOR170-1; pair called as hit, FDR=1%
Description: 10. High-Throughput Odorant Screening
The OR library cell line was thawed from a liquid nitrogen frozen stock into a T-225 flask (Corning) three days before seeding into a 96-well plate for screening. The library was seeded at 6,666 cells per well in 100 ul of DMEM. 24 hours later a working concentration of 1 ug/ml of doxycycline in DMEM was added to the wells. 24 hours after induction, the media was removed from each plate and replaced with 25 ul of odorant diluted in OptiMEM. Each odor was added at three different concentrations (10 uM, 100 uM, 1 mM) in triplicate with the same amount of final DMSO (1%). Each plate contained two control odorants at a three concentration (10 uM, 100 uM, 1 mM) in triplicate and three wells containing 1% DMSO dissolved in media. The library was incubated with odorants for three hours in a cell culture incubator with the lids removed.
After odor incubation, media was pipetted out of the plates and cells were lysed by adding 25 uL of ice-cold Cells-to-cDNA II Lysis Buffer (Thermo Fisher) and pipetting up and down to homogenize and lyse cells. The lysate was then heated to 75° C. for 15 minutes and flash frozen with liquid nitrogen and kept at −80 C until further processing. Then 0.5 uL DNase I (New England Biolabs) was added to lysate, and incubated at 37° C. for 15 minutes. To anneal the RT primer, 5 ul of lysate from each well was combined with 2.5 ul of 10 mM dNTPs (New England Biosciences), 1 ul of 2 uM gene specific RT primer (OL003), and 1.5 ul of H2O. The reaction was heated to 65° C. for 5 min and cooled back down to 0° C. After annealing, 1 ul of M-MuLV Reverse Transcriptase (Enzymatics), 1 ul of buffer, and 0.25 ul of RNase Inhibitor (Enzymatics) were added to each reaction. Reactions were incubated at 42° C. for 60 min and the RT enzyme was heat inactivated at 85° C. for 10 min.
For each batch, qPCR was performed on a few wells (OL005F and OL013) with SYBR FAST qPCR Mastermix to determine the number of cycles necessary for PCR based library preparation. The reaction and cycling conditions are optimized as follows: 95° C. for 3 minutes, 40 cycles of 95° C. for 3 seconds and 60° C. for 20 seconds. After qPCR, 5 ul of each RT reaction was combined with 0.4 ul of 10 uM primers containing sequencing adaptors (OL005F and OL013), 10 ul of NEB-Next Q5 Mastermix (New England Biosciences) and 4.2 ul H2O, the PCR was carried out according to the manufacturer's protocol. The forward primer contains the P7 adaptor sequence and an index identifying the well in the assay and the reverse primer contains the P5 adaptor sequence and an index identifying the plate in the assay. PCR products were pooled together by plate and purified with the DNA Clean and Concentrator Kit. Library concentrations were quantified using a Tape Station 2200 and a Qubit (Thermo Fisher). The libraries were sequenced with two index reads and a single end 75-bp read on a NextSeq 500 in high-output mode (Illumina).
11. Analysis of Next-Generation Sequencing Data
Samples were identified via indexing by their PCR indexes adapters unique for each well (5′ end) and unique for each plate (3′ end). The well barcodes followed the 7 bp indexing scheme in (Illumina Sequencing Library Preparation for Highly Multiplexed Target Capture and Sequencing Matthias Meyer, Martin Kircher, Cold Spring Harb Protoc; 2010; doi:10.1101/pdb.prot5448). The plate indexing scheme followed the Illumina indexing scheme. Sequencing data was demultiplexed and 15 bp barcode sequences were counted with only exact matches by custom python and bash scripts.
12. Statistical Methods for Calling Hits
Count data was then analyzed using the differential expression package EdgeR. To filter out ORs with low representation, we set a cutoff that an OR had to contain at least 0.5% of the reads from more than 399 of the 1954 test samples. This filtered out 3 of 42 ORs which were underrepresented in the cell library (MOR172-1, MOR176-1 and MOR181-1). […]

T1 sequence (Q8VFM9 whole entry): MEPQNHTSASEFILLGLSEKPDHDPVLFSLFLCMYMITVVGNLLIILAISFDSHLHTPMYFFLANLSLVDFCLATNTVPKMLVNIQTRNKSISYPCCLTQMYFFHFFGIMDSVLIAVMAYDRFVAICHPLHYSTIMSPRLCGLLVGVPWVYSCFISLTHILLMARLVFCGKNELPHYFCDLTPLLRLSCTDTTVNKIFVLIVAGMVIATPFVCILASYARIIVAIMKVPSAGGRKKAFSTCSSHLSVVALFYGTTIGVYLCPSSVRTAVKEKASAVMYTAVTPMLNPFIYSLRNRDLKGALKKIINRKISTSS
T2 sequence (Q8VGS3 whole entry): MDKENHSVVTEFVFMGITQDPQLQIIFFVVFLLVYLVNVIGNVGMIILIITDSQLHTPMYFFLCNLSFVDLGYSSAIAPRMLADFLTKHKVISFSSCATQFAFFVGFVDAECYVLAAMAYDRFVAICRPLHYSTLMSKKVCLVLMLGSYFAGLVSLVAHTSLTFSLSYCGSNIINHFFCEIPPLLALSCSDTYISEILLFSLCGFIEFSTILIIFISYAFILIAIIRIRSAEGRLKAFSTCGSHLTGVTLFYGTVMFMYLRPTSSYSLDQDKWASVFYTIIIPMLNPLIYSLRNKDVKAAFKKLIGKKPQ

**Q.** What does the source list for CC(=O)O[C@]1(C)CC[C@@]23C[C@@H]1C(C)(C)[C@@H]2CC[C@H]3C [Cedryl acetate]?
**A.** Minimum Activating Concentration (MOR102-1): 1000 µM; Minimum Activating Concentration (MOR208-1): 1000 µM; Minimum Activating Concentration (MOR189-1): 1000 µM; Minimum Activating Concentration (MOR120-1): 1000 µM; Minimum Activating Concentration (MOR30-1): 1000 µM; Minimum Activating Concentration (MOR142-1): 1000 µM; Minimum Activating Concentration (MOR132-1): 1000 µM

**Q.** CCCCC/C(=C\c1ccccc1)C(OC)OC [a-Amylcinnamaldehyde dimethyl acetal] was tested. Which “Minimum Activating Concentration” value (MOR180-1) did it give?
**A.** 1000 µM

**Q.** What does the source list for CCc1occc(=O)c1O [ethyl maltol]?
**A.** Minimum Activating Concentration (Olfr62): 1000 µM; Minimum Activating Concentration (MOR 199-1): 100 µM; Minimum Activating Concentration (MOR170-1): 1000 µM

From US20200255844A1, “MULTIPLEXED RECEPTOR-LIGAND INTERACTION SCREENS” (THE REGENTS OF THE UNIVERSITY OF CALIFORNIA, priority 2017, published 2020)
